Literature values in US20120231150A1, “Digestive Enzyme Inhibitor and Methods of Use” (TATE & LYLE INGREDIENTS AMERICAS, LLC, priority 2011, published 2012).

Tested on: postprandial blood glucose
Details: use to control blood sugar levels

With `C[C@H]1O[C@H](O[C@H]2[C@H](O)[C@@H](O)[C@@H](O[C@H]3[C@H](O)[C@@H](O)C(O)O[C@@H]3CO)O[C@@H]2CO)[C@H](O)[C@@H](O)[C@@H]1N[C@H]1C=C(CO)[C@@H](O)[C@H](O)[C@H]1O` (stereo partly shown) [Acarbose] as the molecule, how does the side effects read?
The side effects was “undesirable side effects such as gas, bloating, diarrhea”.
